PMC3242598, “Phase I study of BIBF 1120 with docetaxel and prednisone in metastatic chemo-naive hormone-refractory prostate cancer patients” (British Journal of Cancer, 2011)

Tested on: patients with metastatic, chemo-naive, hormone-refractory prostate cancer (HRPC)
Test: Phase I safety analysis: adverse events graded by CTCAE version 3.0
Format: in vivo, human
Conditions: for Dyspepsia: patients with drug-related AE / Dysphonia: patients with drug-related AE / Elevated ALT: patients with drug-related AE / Elevated AST: patients with drug-related AE / Elevated GGT: patients with drug-related AE / Elevated alkaline phosphatase: patients with drug-related AE / Epistasis: patients with drug-related AE / Headache: patients with drug-related AE / Hot flush: patients with drug-related AE / Mucosal inflammation: patients with drug-related AE / Muscle spasm: patients with drug-related AE / Nausea: patients with drug-related AE / Neuropathy: patients with drug-related AE / Pyrexia: patients with drug-related AE / Rash: patients with drug-related AE / Upper abdominal pain: patients with drug-related AE / Vomiting: patients with drug-related AE / Weight decrease: patients with drug-related AE / Ageusia: patients with drug-related AE / Alopecia: patients with drug-related AE / Anorexia: patients with drug-related AE / Asthenia: patients with drug-related AE / Constipation: patients with drug-related AE / Diarrhoea: patients with drug-related AE / Dysgeusia: patients with drug-related AE: all courses
Experimental: On days 2–21 (21-day cycle), patients took an oral dose of BIBF 1120 twice daily. Patients were instructed to swallow BIBF 1120 with water at the same time every day to ensure a dose interval of ∼12 h. On day 2 of treatment cycles (TCs) 1 and 2, patients only took the morning dose of BIBF 1120, omitting the evening dose to allow PK evaluation. All patients were premedicated with oral corticosteroids (dexamethasone 8 mg per os or methylprednisolone 32 mg per os, at 12 h and 1 h before docetaxel infusion) and subsequently took 5 mg prednisone oral BID throughout the trial. On day 1 of each TC, patients received an IV infusion of 75 mg m^−2 docetaxel administered over 1 h.
All patients who received at least one dose of BIBF 1120 or docetaxel were assessed during the safety analysis. Intensity of AEs was graded according to Common Terminology Criteria for Adverse Events (CTCAE) version 3.0. Objective response was defined as a PSA decline ⩾50% from the baseline value over two consecutive courses and/or tumour response according to RECIST criteria ([Therasse et al, 2000]).

[1] = 200 mg BID (n=3) + docetaxel/prednisone, all grades
[2] = 250 mg BID (n=12) + docetaxel/prednisone, Gr 3/4
[3] = 250 mg BID (n=12) + docetaxel/prednisone, all grades
[4] = Total, all dose levels (n=21) + docetaxel/prednisone, Gr 3/4
[5] = Total, all dose levels (n=21) + docetaxel/prednisone, all grades
[6] = during TC 1, all dose levels 100–250 mg BID + docetaxel/prednisone
[7] = during TC 1, all dose levels + docetaxel/prednisone

COC(=O)c1ccc2c(c1)NC(=O)/C2=C(\Nc1ccc(N(C)C(=O)CN2CCN(C)CC2)cc1)c1ccccc1 [BIBF 1120]
9: Nausea: patients with drug-related AE [5]
85.7%: Diarrhoea, frequency of AE irrespective of relatedness (all TCs and doses)
28.6%: Nausea, frequency of AE irrespective of relatedness (all TCs and doses) | Nausea, frequency of drug-related AE [6] | Vomiting, frequency of drug-related AE [6] | Patients with AE severity grade 1 [7] | Patients with AE severity grade 2 [7]
23.8%: Alopecia, frequency of AE irrespective of relatedness (all TCs and doses) | Alopecia, frequency of drug-related AE [6] | Patients with AE severity grade 3 [7]
8: Diarrhoea: patients with drug-related AE [3]
six: Patients with CTCAE grade 3/4 liver enzyme (transaminase) elevations, of twelve (250 mg BID, any TC, based on laboratory values)
10: Asthenia: patients with drug-related AE [3]
1: Epistasis: patients with drug-related AE [1] | Hot flush: patients with drug-related AE [1] | Ageusia: patients with drug-related AE [3] | Dyspepsia: patients with drug-related AE [3] | Dysphonia: patients with drug-related AE [3] | Hot flush: patients with drug-related AE [3] | Neuropathy: patients with drug-related AE [3] | Pyrexia: patients with drug-related AE [3] | Weight decrease: patients with drug-related AE [3]
3: Anorexia: patients with drug-related AE [3] | Elevated AST: patients with drug-related AE [3] | Elevated GGT: patients with drug-related AE [3] | Epistasis: patients with drug-related AE [3] | Upper abdominal pain: patients with drug-related AE [3] | Vomiting: patients with drug-related AE [3] | Constipation: patients with drug-related AE [5] | Dysgeusia: patients with drug-related AE [5] | Elevated AST: patients with drug-related AE [5] | Elevated GGT: patients with drug-related AE [5]
95.2%: Asthenia, frequency of AE irrespective of relatedness (all TCs and doses)
0: Dyspepsia: patients with drug-related AE [1] | Elevated ALT: patients with drug-related AE [1] | Elevated AST: patients with drug-related AE [1] | Elevated GGT: patients with drug-related AE [1] | Elevated alkaline phosphatase: patients with drug-related AE [1] | Headache: patients with drug-related AE [1] | Mucosal inflammation: patients with drug-related AE [1] | Muscle spasm: patients with drug-related AE [1] | Neuropathy: patients with drug-related AE [1] | Pyrexia: patients with drug-related AE [1] | Rash: patients with drug-related AE [1] | Upper abdominal pain: patients with drug-related AE [1] | Weight decrease: patients with drug-related AE [1] | Ageusia: patients with drug-related AE [2] | Alopecia: patients with drug-related AE [2] | Anorexia: patients with drug-related AE [2] | Asthenia: patients with drug-related AE [2] | Constipation: patients with drug-related AE [2] | Diarrhoea: patients with drug-related AE [2] | Dysgeusia: patients with drug-related AE [2] | Dyspepsia: patients with drug-related AE [2] | Dysphonia: patients with drug-related AE [2] | Elevated alkaline phosphatase: patients with drug-related AE [2] | Epistasis: patients with drug-related AE [2] | Headache: patients with drug-related AE [2] | Hot flush: patients with drug-related AE [2] | Mucosal inflammation: patients with drug-related AE [2] | Muscle spasm: patients with drug-related AE [2] | Nausea: patients with drug-related AE [2] | Neuropathy: patients with drug-related AE [2] | Pyrexia: patients with drug-related AE [2] | Rash: patients with drug-related AE [2] | Upper abdominal pain: patients with drug-related AE [2] | Vomiting: patients with drug-related AE [2] | Weight decrease: patients with drug-related AE [2] | Headache: patients with drug-related AE [3] | Ageusia: patients with drug-related AE [4] | Alopecia: patients with drug-related AE [4] | Anorexia: patients with drug-related AE [4] | Asthenia: patients with drug-related AE [4] | Constipation: patients with drug-related AE [4] | Dysgeusia: patients with drug-related AE [4] | Dyspepsia: patients with drug-related AE [4] | Dysphonia: patients with drug-related AE [4] | Elevated alkaline phosphatase: patients with drug-related AE [4] | Epistasis: patients with drug-related AE [4] | Headache: patients with drug-related AE [4] | Hot flush: patients with drug-related AE [4] | Mucosal inflammation: patients with drug-related AE [4] | Muscle spasm: patients with drug-related AE [4] | Nausea: patients with drug-related AE [4] | Neuropathy: patients with drug-related AE [4] | Pyrexia: patients with drug-related AE [4] | Rash: patients with drug-related AE [4] | Upper abdominal pain: patients with drug-related AE [4] | Vomiting: patients with drug-related AE [4] | Weight decrease: patients with drug-related AE [4]
14.3%: Patients with AE severity grade 4 (neutropenia only, considered related to docetaxel) [7]
61.9%: Asthenia, frequency of drug-related AE [6]
2: Dysphonia: patients with drug-related AE [1] | Nausea: patients with drug-related AE [1] | Vomiting: patients with drug-related AE [1] | Elevated ALT: patients with drug-related AE [2] | Elevated AST: patients with drug-related AE [2] | Elevated GGT: patients with drug-related AE [2] | Constipation: patients with drug-related AE [3] | Dysgeusia: patients with drug-related AE [3] | Elevated alkaline phosphatase: patients with drug-related AE [3] | Mucosal inflammation: patients with drug-related AE [3] | Muscle spasm: patients with drug-related AE [3] | Rash: patients with drug-related AE [3] | Diarrhoea: patients with drug-related AE [4] | Elevated ALT: patients with drug-related AE [4] | Elevated AST: patients with drug-related AE [4] | Elevated GGT: patients with drug-related AE [4] | Ageusia: patients with drug-related AE [5] | Dyspepsia: patients with drug-related AE [5] | Elevated alkaline phosphatase: patients with drug-related AE [5] | Headache: patients with drug-related AE [5] | Hot flush: patients with drug-related AE [5] | Mucosal inflammation: patients with drug-related AE [5] | Muscle spasm: patients with drug-related AE [5] | Neuropathy: patients with drug-related AE [5] | Pyrexia: patients with drug-related AE [5] | Rash: patients with drug-related AE [5] | Weight decrease: patients with drug-related AE [5]
One: Patients with grade 3 diarrhoea (200 mg BID + docetaxel/prednisone, TC 1)
50%: Patients with CTCAE grade 3/4 increases in hepatic enzymes (250 mg BID, entire treatment period)
13: Diarrhoea: patients with drug-related AE [5]
14: Asthenia: patients with drug-related AE [5]
5: Nausea: patients with drug-related AE [3] | Epistasis: patients with drug-related AE [5] | Vomiting: patients with drug-related AE [5]
6: Anorexia: patients with drug-related AE [5]
4: Alopecia: patients with drug-related AE [3] | Elevated ALT: patients with drug-related AE [3] | Alopecia: patients with drug-related AE [5] | Dysphonia: patients with drug-related AE [5] | Elevated ALT: patients with drug-related AE [5] | Upper abdominal pain: patients with drug-related AE [5]
